For orientation: IC50 means the concentration that gives 50% inhibition. As usually defined, the inhibition in vivo is the change of the read-out against control, counted positive when it falls.

Where “and” joins values, the source holds several entries; their conditions need not be identical. Identical values can stand only once. Like-named read-outs stand apart in the source and are kept apart here.

For experiment [1], the target named is T1, farnesyl protein transferase (FPT) (Rattus norvegicus, UniProt Q02293+Q04631).
T1 construct: were partially purified from rat brain by ammonium sulfate fractionation followed by Q-Sepharose; from tissue; host or cells: rat brain
Briefly: In vitro enzyme assay: inhibition of farnesyl protein transferase (transfer of [3H]farnesyl to Ras-CVLS). Format: biochemical.

In experiment [2] the test system is DLD-1 (human colon carcinoma cells, ATCC # CCL 221). Briefly: In Vivo Anti-Tumor Studies, subcutaneous DLD-1 tumors. Details: species or system athymic nu/nu female mice. The note with it: Mus musculus, DLD-1, po, QID, 4 weeks, range over the listed compounds; for inhibition in vivo at 10 mg/kg: 10 mg/kg p.o.; for inhibition in vivo at 50 mg/kg: 50 mg/kg p.o. The text has this:
Tumor cells (5 X 10^5 to 8 X 10^6) of DLD-1 (human colon carcinoma cells, ATCC # CCL 221) are innolculated subcutaneously into the flank of 5-6 week o;d athymic nu/nu female mice.

Experiment [3] concerns Ras-CVLL in COS monkey kidney cells. Briefly: COS cell assay: geranylgeranylation of Ras-CVLL (Western blot). Format: cell-based.
The next experiment relates to Human tumor cells. Briefly: Soft Agar Assay (anchorage-independent growth). Format: cell-based. The note with it: range over 5 tumor cell lines (K ras NIH 3T3, H ras NIH 3T3, HTB 177, A549, HTB 175), read-out: IC50 for each cell line.
Where [4] appears, read: FPT IC50, Table 1, partially purified rat brain FPT, Ras-CVLS.
[5] abbreviates: Table 1, partially purified rat brain FPT, Ras-CVLS, read-out: FPT IC50.
Setting [6] is: Table 2, comparison with GGPT, read-out: ENZYME INHIBITION FPT IC50.

As for `O=C(Cc1cc[n+]([O-])cc1)N1CCN([C@H]2c3ccc(Cl)cc3CCc3cc(Br)cnc32)CC1` [Example 16B], the IC50 in experiment [1] (setting [4]) is 38 nM and 23 nM. In experiment [2], the inhibition in vivo at 10 mg/kg lay within 7 to 50% and the inhibition in vivo at 50 mg/kg was in the range of 35.4 to 83%.

On to `O=C(Cc1cc[n+]([O-])cc1)N1CCN([C@@H]2c3ccc(Cl)cc3CCc3cc(Br)cnc32)CC1` [Example 16A], for which the IC50 in experiment [1] (setting [4]) is 32 nM and 26 nM.

`O=C(Cc1cc[n+]([O-])cc1)N1CCC(C2c3ccc(Cl)c(Br)c3CCc3cc(Br)cnc32)CC1` (single isomer, unassigned) [Example 14A]: in experiment [1] (setting [5]), the half-maximal inhibitory concentration (IC50) came to 2.6 nM. The IC50 in experiment [1] (setting [6]) was 2.6 nM. Further, in experiment [2], the inhibition in vivo at 10 mg/kg lay in the range of 7 to 50% and the inhibition in vivo at 50 mg/kg lay within 35.4 to 83%.

Turning to `O=C(Cc1cc[n+]([O-])cc1)N1CCC([C@H]2c3ncc(Br)cc3CCc3cc(Cl)cc(Br)c32)CC1` [Example 9], the 50% inhibitory concentration (IC50) in experiment [1] (setting [5]) came to 1.3 nM. Besides, in experiment [1] (setting [6]), the IC50 worked out at 1.3 nM. In experiment [2], this molecule registered an inhibition in vivo at 10 mg/kg of 7 to 50% and an inhibition in vivo at 50 mg/kg of 35.4 to 83%.

Take `O=C(Cc1cc[n+]([O-])cc1)N1CCC(=C2c3ncc(Br)cc3CCc3cc(Cl)cc(Br)c32)CC1` (racemic) [Example 7]: the 50% inhibitory concentration (IC50) in experiment [1] (setting [5]) and in experiment [1] (setting [6]) was 12 nM throughout. This molecule also returned an inhibition in vivo at 10 mg/kg in experiment [2] of 7 to 50%. The inhibition in vivo at 50 mg/kg in experiment [2] is 35.4 to 83%.

Take `O=C(Cc1cc[n+]([O-])cc1)N1CCN([C@H]2c3ccc(Cl)c(Br)c3CCc3cc(Br)cnc32)CC1` [Example 5]: the concentration for half-maximal inhibition (IC50) in experiment [1] (setting [5]) is 2.3 nM. Also, the half-inhibitory concentration (IC50) in experiment [1] (setting [6]) was 2.3 nM. In experiment [2], the inhibition in vivo at 10 mg/kg was in the range of 7 to 50% and the inhibition in vivo at 50 mg/kg is 35.4 to 83%.

With `O=C(Cc1cc[n+]([O-])cc1)N1CCN([C@H]2c3ncc(Br)cc3CCc3cc(Cl)cc(Br)c32)CC1` [Example 11A], the concentration for half-maximal inhibition (IC50) was 1.8 nM and 2.1 nM in experiment [1] (setting [5]); 1.8 nM and 2.1 nM in experiment [1] (setting [6]). This molecule also came in with an inhibition in vivo at 10 mg/kg in experiment [2] of 7 to 50%. Also, the inhibition in vivo at 50 mg/kg in experiment [2] is 35.4 to 83%.

On to `O=C(Cc1cc[n+]([O-])cc1)N1CCC(=C2c3ccc(Cl)c(Br)c3CCc3cc(Br)cnc32)CC1` [Example 2], for which the IC50 in experiment [1] (setting [5]) is 10 nM and 16 nM; in experiment [1] (setting [6]), 10 nM and 16 nM. In addition, the “did not block the geranylgeranylation of Ras-CVLL at concentrations up to” value in experiment [3] is on record as above 33 µM. Moreover, the inhibition in vivo at 10 mg/kg in experiment [2] was in the range of 7 to 50%. The inhibition in vivo at 50 mg/kg in experiment [2] fell in the range of 35.4 to 83%.

As for `NC(=O)N1CCC(CC(=O)N2CCC(C3c4ccc(Cl)c(Br)c4CCc4cc(Br)cnc43)CC2)CC1` (single isomer, unassigned) [Example 13], the IC50 in experiment [1] (setting [5]) stood at 5 nM. Further, the IC50 in experiment [1] (setting [6]) was found to be 5 nM. In experiment [2], this molecule yielded an inhibition in vivo at 10 mg/kg of 7 to 50% and an inhibition in vivo at 50 mg/kg of 35.4 to 83%.

As to `NC(=O)N1CCC(CC(=O)N2CCC(C3c4ncc(Br)cc4CCc4cc(Cl)cc(Cl)c43)CC2)CC1` (single isomer, unassigned) [Example 18], the IC50 in experiment [1] (setting [5]) was 3.1 nM; in experiment [1] (setting [6]) it was 3.1 nM; with Human tumor cells, 175 to 800 nM. The molecule further registered an inhibition in vivo at 10 mg/kg in experiment [2] of 7 to 50%. Moreover, the inhibition in vivo at 50 mg/kg in experiment [2] is 35.4 to 83%.

Source of the values: patent EP1019392B1, “TRICYCLIC AMIDES USEFUL FOR INHIBITION OF G-PROTEIN FUNCTION AND FOR TREATMENT OF PROLIFERATIVE DISEASES” (SCHERING CORPORATION, priority 1995, dated 1997).
